Assay results: patent US20250115597A1, “TYK2 INHIBITORS AND COMPOSITIONS AND METHODS THEREOF” (LYNK PHARMACEUTICALS CO. LTD., priority 2021, published 2025)
Values after ≈ are worked out from the molar mass of the structure shown. Where two headings read alike, the source gives them in different places.

Tests used:
[1] = target: T1, TYK2-JH2 domain (Homo sapiens, UniProt P29597); experiment: Binding activity test for JH2 domain of TYK2 (Tb-antibody/tracer FRET); settings: for JAK1/TYK2 selectivity: ratio JAK1-JH2 IC50 / TYK2-JH2 IC50
T1 construct: IC50 on JH2 domain activity (nM)
T1 sequence (P29597 589-875 limits assumed): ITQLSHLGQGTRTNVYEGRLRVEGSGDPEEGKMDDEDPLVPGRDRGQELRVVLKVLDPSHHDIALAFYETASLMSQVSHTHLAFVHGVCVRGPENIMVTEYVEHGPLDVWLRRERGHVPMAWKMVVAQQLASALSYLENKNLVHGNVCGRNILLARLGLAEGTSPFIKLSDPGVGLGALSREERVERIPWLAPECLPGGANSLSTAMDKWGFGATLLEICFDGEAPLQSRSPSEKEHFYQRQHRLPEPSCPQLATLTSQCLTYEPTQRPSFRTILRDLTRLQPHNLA
In short: (§1)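 FRET read-out after 60 min at 25° C plus overnight at 4° C; tracer displacement detected via Tb-labelled antibody on the JH2 domain. Dose-response used 11 points at 3-fold dilution.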

[2] = target: T2, JAK1-JH2 domain (Homo sapiens, UniProt P23458); experiment: Binding activity test for JH2 domain of JAK1 (Tb-antibody/tracer FRET)
T2 construct: IC50 on JH2 domain activity (nM)
T2 sequence (P23458 583-855 limits assumed): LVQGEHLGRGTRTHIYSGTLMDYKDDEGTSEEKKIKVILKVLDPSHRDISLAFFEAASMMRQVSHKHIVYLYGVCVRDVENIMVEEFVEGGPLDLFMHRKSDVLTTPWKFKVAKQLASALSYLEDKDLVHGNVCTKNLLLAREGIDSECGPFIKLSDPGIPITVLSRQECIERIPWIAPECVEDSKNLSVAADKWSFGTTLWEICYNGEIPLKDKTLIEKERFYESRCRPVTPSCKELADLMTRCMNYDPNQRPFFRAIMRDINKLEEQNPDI
In short: as §1

[3] = test system: pSTAT1; experiment: Phosphorylation inhibition of STAT in human whole blood, IFN-alpha stimulated (flow cytometry); type: cell-based; settings: 20 min; human whole blood, IFN-alpha 20 mins, CD3 cells; read-out: IC50 on pSTAT1 inhibition in h WB
Experimental: Phosphorylation Inhibition of STAT in Human PBMC and Human Whole Blood Testing:
The inhibitory potential of test articles in human PBMC and human whole blood assay was evaluated by the method of flow cytometry.
IFN-alpha will activate JAK1 and TYK2 kinase in T cells by binding to IFN receptors, and then lead to phosphorylation of STAT1 and STAT2. The phosphorylated STAT1 enter nuclear and promote transcription and expression of IFN-gamma. To evaluate the efficacy of TYK2i in T cells, freshly prepared human PBMC or freshly collected human whole blood will be stimulated with certain unit of human IFN-alpha (Universal Type I IFN(1MU), R&D, 11200-2) for 20 mins in incubator. After stimulation, fix cells with Phosflow™ Fix Buffer I (BD, 557870), and then collect fixed cells by centrifugation (500 g, 8 min). Wash cells once with pre-cooled PBS, and then permeabilize cells with cold Perm Buffer III buffer (BD, 558050) for 45 mins on ice. Collect cells by centrifugation (600 g, 8 min) and washed twice with cold PBS. Stain cells with anti-human CD3 (FITC Mouse Anti-Human CD3, BD, 555332) and anti-pSTAT1_Y701(Alexa Fluor 647 Mouse Anti-Stat1 (pY701), BD, 612597) antibodies. Detect pSTAT1 by flow cytometry (CytoFlex S) and analyze data with FlowJo and GraphPad Prism 8 software. IC50 values of test articles were determined using 4-parameter logistic equation.

[4] = Microsomal metabolic stability assay; type: in vitro ADME; settings: pH 7.4, 0.5 mg/mL protein, 1 μM compound
In short: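 Parent loss was tracked by LC/MS/MS at 0, 5, 15, 30 and 45 min, with half-life derived from the ln(% remaining)–time slope. Incubation at 37 °C, pH 7.4 phosphate/EDTA buffer: 0.5 mg/mL microsomes, 1 μM compound, NADPH-regenerated (2 mM).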

[5] = Kinetic solubility; type: physicochemical; settings: phosphate buffer, aqueous buffer, kinetic from dmso stock, PBS (pH 7.4), 1% DMSO, room temperature
Experimental: Aliquots of 8 μL of reference and test compound stock solutions (10 mM/5 mM) are added into 792 μL of 100 mM pH 7.4 phosphate buffer. The final DMSO concentration is 1%. Sample tubes are shaken for 2 hours at 1000 rpm at room temperature. Samples are centrifuged at 12000 rpm for 10 min to precipitate un-dissolved particles. And transfer the supernatants to a new tube or plate. Add 5 μL of samples (no diluted, 10 times diluted and 100 times diluted) and standard curve samples to 95 μL of ACN containing IS for LC-MS/MS analysis.

[6] = Plasma protein binding by equilibrium dialysis; type: in vitro ADME; settings: human plasma, equilibrium dialysis 5 hours at 37° C.; read-out: % Bound (human) (converted)
Experimental: Plasma Protein Binding by Equilibrium Dialysis
Aliquots of test compound stock solution and warfarin stock solution were spiked into plasma to give the matrix solutions with theoretical concentrations of test compound at 0.2 and 2 μM or warfarin at 2 μM. Immediately transfer 50 μL of the spiked plasma solution suspension to a 96-well plate to act as T=0 control sample. Assemble the dialysis set up following the manufacturer's instructions. Load cells with 150 μL of plasma sample and dialyzed against equal volume of dialysis buffer (PBS). The assay is performed in duplicate. Cover the unit with gas permeable lid and incubate for 5 hours at 37° C. at 100 rpm in a constant temperature shaking box. At the end of incubation, remove lid and pipette 50 μL of post-dialysis samples from both buffer and plasma solution chambers into separated 96-well plate for analysis, respectively. Add 50 μL of plasma solution to the buffer samples, and an equal volume of PBS to the collected plasma solution samples. Shake the plate at 1000 rpm for 2 minutes and add 600 μL of 50% ACN/MeOH containing an appropriate internal standard (IS) to precipitate protein and release compound. Vortex at 1000 rpm for 10 minutes. Centrifuge for 10 minutes at 4000 rpm. Then transfer 75 μL of the supernatant to new 96-well plates for analysis. Add 150 μL of distilled water to each sample and mix for analysis by LC-MS/MS.
The free rate (% Unbound), binding rate (% Bound), and recovery rate (% Recovery) of the compound are calculated as follows: […]

[7] = target: T3, Ba/F3-FL-TYK2-P760L cells (Homo sapiens, UniProt P29597, P760L, cells depend on it); experiment: Anti-proliferative assay, Ba/F3-FL-TYK2-P760L cells (Cell-Titer Glo); type: cell-based; settings: 72 h, read-out: BaF3-FL-T2P760L IC50
T3 construct: BaF3-FL-T2P760L (nM)
T3 sequence (P29597 whole entry P760L): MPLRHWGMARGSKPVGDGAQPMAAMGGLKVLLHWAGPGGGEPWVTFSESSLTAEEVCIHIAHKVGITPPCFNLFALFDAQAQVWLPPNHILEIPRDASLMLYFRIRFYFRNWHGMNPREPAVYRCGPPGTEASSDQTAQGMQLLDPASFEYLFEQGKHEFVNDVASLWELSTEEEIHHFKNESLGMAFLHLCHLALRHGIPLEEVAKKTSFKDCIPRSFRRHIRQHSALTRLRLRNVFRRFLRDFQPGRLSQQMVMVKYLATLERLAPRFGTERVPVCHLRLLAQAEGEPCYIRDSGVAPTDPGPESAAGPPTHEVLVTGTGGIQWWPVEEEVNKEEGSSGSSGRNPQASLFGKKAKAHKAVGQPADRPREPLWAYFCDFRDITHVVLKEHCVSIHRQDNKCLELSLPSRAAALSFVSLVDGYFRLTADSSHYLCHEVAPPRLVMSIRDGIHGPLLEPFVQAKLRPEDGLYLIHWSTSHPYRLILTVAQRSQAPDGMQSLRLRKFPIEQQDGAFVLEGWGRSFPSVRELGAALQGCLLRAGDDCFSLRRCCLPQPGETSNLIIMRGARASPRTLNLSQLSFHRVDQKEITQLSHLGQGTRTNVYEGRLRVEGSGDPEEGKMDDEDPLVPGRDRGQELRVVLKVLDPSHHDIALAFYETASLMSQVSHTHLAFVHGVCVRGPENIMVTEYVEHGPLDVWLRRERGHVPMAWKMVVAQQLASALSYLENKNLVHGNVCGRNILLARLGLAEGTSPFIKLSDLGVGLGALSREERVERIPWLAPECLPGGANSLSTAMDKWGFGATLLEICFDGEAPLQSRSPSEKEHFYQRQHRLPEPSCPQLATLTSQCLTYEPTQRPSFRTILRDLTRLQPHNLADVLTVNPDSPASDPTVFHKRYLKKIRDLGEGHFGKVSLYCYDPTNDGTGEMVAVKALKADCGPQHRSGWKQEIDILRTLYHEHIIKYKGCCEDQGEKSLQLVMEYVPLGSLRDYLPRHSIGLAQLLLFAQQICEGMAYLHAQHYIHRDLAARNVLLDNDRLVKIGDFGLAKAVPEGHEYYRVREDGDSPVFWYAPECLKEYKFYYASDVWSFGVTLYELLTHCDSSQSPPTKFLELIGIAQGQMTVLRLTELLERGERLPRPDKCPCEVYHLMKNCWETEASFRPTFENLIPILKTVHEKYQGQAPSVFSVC
In short: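 Compound exposure ran 72 h at 37 °C in 5% CO2 across nine 3-fold concentrations from a 20 μM top dose, added 24 h after seeding 2000 cells/well.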

[8] = target: T4, Ba/F3-TEL-TYK2 cells (Homo sapiens, UniProt P29597); experiment: Anti-proliferative assay, Ba/F3-TEL-TYK2 cells (Cell-Titer Glo); type: cell-based; settings: 72 h, read-out: BaF3-TEL-TYK2 IC50
T4 construct: fused on or other part: Dimerization domain of TEL (ETV6) fused to the TYK2 kinase domain; P41212 (Transcription factor ETV6)
T4 sequence (P29597 whole entry, change not shown, the tested form may be a part): as the sequence (P29597 whole entry P760L) above, with L760P counted along it
Experimental: (§2) Anti-Proliferative Assay Dimerization domain of Tel protein fused with JAK kinase domain was permanently transduced into Ba/F3 cells, whose proliferation is dependent on JAK activity in the absence of IL-3 induction. These engineered Ba/F3 cells (Ba/F3-FL-TYK2-[…], Ba/F3-TEL-TYK2 and Ba/F3-TEL-JAK2) were used to monitor JAK inhibitory activities of the compounds in the cellular. […] Cells were seeded at 2000/well of white flat bottom 96-well plates. The well containing medium only was used as background control. After 24 h growth, cells were treated with compounds. The test compounds were dissolved in DMSO to a stock concentration of 20 mM. 3-fold serially diluted compounds for 9 concentrations with top concentration of 20 μM was added into the each well. […] The cells continued to grow at 37° C. in 5% CO2 for 72 h after compound treatment. The viability was measured by cellular ATP determination using the Cell-Titer Glo luciferase reagent (Promega). The Luminescence value was recorded by a multi-label reader Envision (PerkinElmer).

[9] = target: T5, Ba/F3-TEL-JAK2 cells (Homo sapiens, UniProt O60674); experiment: Anti-proliferative assay, Ba/F3-TEL-JAK2 cells (Cell-Titer Glo); type: cell-based; settings: 72 h, read-out: BaF3-TEL-JAK2 IC50
T5 construct: fused on or other part: Dimerization domain of TEL (ETV6) fused to the JAK2 kinase domain; P41212 (Transcription factor ETV6)
T5 sequence (O60674 whole entry, change not shown, the tested form may be a part): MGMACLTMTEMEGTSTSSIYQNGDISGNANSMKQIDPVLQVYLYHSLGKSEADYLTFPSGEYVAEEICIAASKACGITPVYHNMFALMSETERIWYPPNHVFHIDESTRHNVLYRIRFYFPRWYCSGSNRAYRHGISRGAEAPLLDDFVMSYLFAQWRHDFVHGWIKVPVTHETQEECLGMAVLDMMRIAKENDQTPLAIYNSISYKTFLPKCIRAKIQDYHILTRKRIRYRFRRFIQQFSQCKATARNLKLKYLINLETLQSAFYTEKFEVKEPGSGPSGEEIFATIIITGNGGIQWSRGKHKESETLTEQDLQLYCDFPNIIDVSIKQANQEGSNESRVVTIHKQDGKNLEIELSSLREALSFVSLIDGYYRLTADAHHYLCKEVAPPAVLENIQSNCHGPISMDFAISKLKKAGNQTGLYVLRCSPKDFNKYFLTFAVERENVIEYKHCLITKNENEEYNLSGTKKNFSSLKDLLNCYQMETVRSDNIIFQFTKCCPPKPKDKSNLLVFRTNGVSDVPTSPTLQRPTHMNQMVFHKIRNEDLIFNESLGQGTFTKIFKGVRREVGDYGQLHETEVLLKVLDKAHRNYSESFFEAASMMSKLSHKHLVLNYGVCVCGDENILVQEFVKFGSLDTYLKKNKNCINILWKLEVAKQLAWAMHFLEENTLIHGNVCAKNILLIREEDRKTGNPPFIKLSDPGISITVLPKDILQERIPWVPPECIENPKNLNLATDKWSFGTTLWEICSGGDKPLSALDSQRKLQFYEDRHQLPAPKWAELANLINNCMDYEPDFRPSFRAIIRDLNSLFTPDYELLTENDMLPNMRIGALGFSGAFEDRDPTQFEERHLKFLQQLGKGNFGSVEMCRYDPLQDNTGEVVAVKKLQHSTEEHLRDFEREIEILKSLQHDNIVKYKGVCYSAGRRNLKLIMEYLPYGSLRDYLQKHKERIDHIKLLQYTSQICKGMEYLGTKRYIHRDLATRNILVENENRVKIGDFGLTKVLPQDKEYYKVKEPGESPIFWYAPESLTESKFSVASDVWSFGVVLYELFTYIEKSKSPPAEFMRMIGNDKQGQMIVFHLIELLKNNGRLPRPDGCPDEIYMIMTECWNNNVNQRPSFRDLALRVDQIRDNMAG
Experimental: as §2

[10] = dog liver microsomes, read-out: Dog LM Clint
[11] = dog liver microsomes, read-out: Dog LM T½
[12] = human liver microsomes, read-out: Human LM Clint
[13] = human liver microsomes, read-out: Human LM T½
[14] = rat liver microsomes, read-out: Rat LM Clint
[15] = rat liver microsomes, read-out: Rat LM T½

Row | IC50 [1] [nM] | JAK1/TYK2 selectivity [1] | IC50 [2] [nM] | IC50 [3] [nM] | microsomal CLint at 1 μM [4, 10] [µL/min/mg] | half-life at 1 μM [4, 11] [min] | microsomal CLint at 1 μM [4, 12] [µL/min/mg] | half-life at 1 μM [4, 13] [min] | microsomal CLint at 1 μM [4, 14] [µL/min/mg] | half-life at 1 μM [4, 15] [min] | solubility at 2 h [5] [µM] | fraction unbound at 5 h [6] | GI50 [7] [nM] | GI50 [8] [nM] | GI50 [9] [nM] | Structure (SMILES)
1 | 0.521 | 46.7 | 24.4 | 495 | 10.9 | 127 | 24.3 | 57 | 35.3 | 39.3 | 29.9 (≈ 14.4 µg/mL) | 0.123 |  |  |  | [2H]C([2H])([2H])NC(=O)c1cnc(NC(=O)C2CC2)cc1Nc1cn(C)c2ncn([C@H](C)C(F)(F)F)c(=O)c12 (single isomer, unassigned) [Example 234A, (R*)-6-(cyclopropanecarboxamido)-N-(methyl-d3)-4-((7-methyl-4-oxo-3-(1,1,1-trifluoropropan-2-yl)-4,7-dihydro-3H-pyrrolo[2,3-d]pyrimidin-5-yl)amino)nicotinamide]
2 |  |  |  |  |  |  |  |  |  |  |  |  | 70.7 | 5440 | 2300 | [2H]C([2H])([2H])NC(=O)c1cnc(Nc2ccc(Cl)cc2)nc1Nc1cccc(-c2ncn(C)n2)c1OC [Example 3, 2-((4-Chlorophenyl)amino)-4-((2-methoxy-3-(1-methyl-1H-1,2,4-triazol-3-yl)phenyl)amino)-N-(methyl-d3) pyrimidine-5-carboxamide]
3 | 0.33 | 40.2 | 13.3 |  | 65.8 | 21.1 | 95 | 14.6 | 109 | 12.8 | 32.1 (≈ 14.4 µg/mL) | 0.046 | 65.4 |  |  | [2H]C([2H])([2H])NC(=O)c1cnc(NC(=O)C2CC2)cc1Nc1ccc2cnn(CC(F)F)c2c1OC [Example 131, 6-(Cyclopropanecarboxamido)-4-((1-(2,2-difluoroethyl)-7-methoxy-1H-indazol-6-yl)amino)-N-(methyl-d3)nicotinamide]
